Each cell line was assayed with Cc1ccc(Nc2nccc(N(C)c3ccc4c(C)n(C)nc4c3)n2)cc1S(N)(=O)=O [Pazopanib] + CC(C)C[C@H](NC(=O)[C@H](Cc1ccccc1)NC(=O)c1cnccn1)B(O)O [Bortezomib] (partner 0.002 µM) (assay: relative viability (nuclei count vs DMSO), 5 days (fraction); higher = more cells survive). Conditions: first compound 0.01 µM.
Summary of the method: (§1)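 Lung cancer cell lines in 1536-well plates got either a single drug or a fixed anchor-drug dose together with five library-drug doses (not always all listed) in √10 steps, by pin tool, on the day after seeding. Nuclei were counted after 5 days, and relative viability is the treated-to-vehicle ratio of nuclei counts. Values are medians of duplicate plates.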

Cell Line | relative viability
COR-L 105 | 0.903
IA-LM | 0.889
LOU-NH91 | 0.484
ChaGo-K-1 | 1.12
NCI-H3122 | 1.04
HOP-62 | 0.642
HCC-44 | 0.942
NCI-H727 | 0.791
NCI-H1299 | 0.998
NCI-H1563 | 0.788
ABC-1 | 0.257

Same assay, conditions: first compound 0.03162 µM

Cell Line | relative viability
NCI-H838 | 0.883
NCI-H1650 | 0.212
EBC-1 | 0.602
NCI-H1703 | 0.262
NCI-H1993 | 1.02
PC-14 | 0.805
LCLC-103H | 0.869
NCI-H596 | 1.14
NCI-H2126 | 1.14
EMC-BAC-2 | 1.11
NCI-H2085 | 1.09
Calu-6 | 1.06
HCC-366 | 1.07
NCI-H1666 | 0.829
NCI-H647 | 0.93
NCI-H2087 | 0.909
H3255 | 0.723
COR-L23 | 1.08
COR-L 105 | 0.859
IA-LM | 1.05
LOU-NH91 | 0.481
ChaGo-K-1 | 1.1
NCI-H3122 | 0.985
HOP-62 | 0.724
HCC-44 | 0.877
NCI-H727 | 0.938
NCI-H1299 | 0.987
NCI-H1792 | 0.958
NCI-H1563 | 0.873
ABC-1 | 0.293

Same assay, conditions: first compound 0.1 µM

Cell Line | relative viability
NCI-H838 | 0.927
NCI-H1650 | 0.235
EBC-1 | 0.712
NCI-H1703 | 0.233
NCI-H1993 | 1.02
NCI-H2347 | 1.23
PC-14 | 1.16
LCLC-103H | 1.11
NCI-H596 | 0.962
NCI-H2126 | 1.11
EMC-BAC-2 | 1.1
NCI-H2085 | 1.01
Calu-6 | 1.04
HCC-366 | 1.02
NCI-H1666 | 0.77
NCI-H647 | 0.963
NCI-H2087 | 0.804
H3255 | 0.75
COR-L23 | 1.12
COR-L 105 | 0.684
IA-LM | 0.77
LOU-NH91 | 0.496
ChaGo-K-1 | 0.952
NCI-H3122 | 0.917
HCC-44 | 0.891
NCI-H727 | 0.98
NCI-H1299 | 1.05
NCI-H1792 | 0.916
NCI-H1563 | 0.947
ABC-1 | 0.212

Same assay, conditions: first compound 0.3162 µM

Cell Line | relative viability
NCI-H838 | 0.87
NCI-H1650 | 0.191
EBC-1 | 0.519
NCI-H1703 | 0.267
NCI-H1993 | 1.2
NCI-H2347 | 0.95
PC-14 | 0.858
LCLC-103H | 1.04
NCI-H596 | 1.16
NCI-H2126 | 1.07
EMC-BAC-2 | 1.04
NCI-H2085 | 1.02
Calu-6 | 0.932
HCC-366 | 0.973
NCI-H1666 | 1.01
NCI-H647 | 1.07

Cell Line | relative viability
NCI-H2087 | 0.798
H3255 | 1.06
COR-L23 | 0.935
COR-L 105 | 0.765
IA-LM | 0.797
LOU-NH91 | 0.475
ChaGo-K-1 | 0.91
NCI-H3122 | 1.02
HOP-62 | 0.935
HCC-44 | 0.899
NCI-H727 | 0.928
NCI-H1299 | 1.03
NCI-H1792 | 0.949
NCI-H1563 | 0.913
ABC-1 | 0.316

Same assay, conditions: first compound 1 µM

Cell Line | relative viability
NCI-H838 | 1.2
NCI-H1650 | 0.21
EBC-1 | 0.65
NCI-H1703 | 0.214
NCI-H1993 | 1.28
NCI-H2347 | 0.997
PC-14 | 0.856
LCLC-103H | 1.24
NCI-H596 | 1.02
NCI-H2126 | 1.09
EMC-BAC-2 | 1.22
NCI-H2085 | 1.13
Calu-6 | 0.957
HCC-366 | 1.09
NCI-H1666 | 1.35
NCI-H647 | 1.05

Cell Line | relative viability
NCI-H2087 | 0.879
H3255 | 0.92
COR-L23 | 1.02
COR-L 105 | 0.977
IA-LM | 0.597
LOU-NH91 | 0.506
ChaGo-K-1 | 0.951
NCI-H3122 | 1.1
HOP-62 | 0.923
HCC-44 | 0.989
NCI-H727 | 1.11
NCI-H1299 | 1.02
NCI-H1792 | 0.935
NCI-H1563 | 0.985
ABC-1 | 0.343

The cell lines below were run with Cc1ccc(Nc2nccc(N(C)c3ccc4c(C)n(C)nc4c3)n2)cc1S(N)(=O)=O [Pazopanib] + Cc1nc(Nc2ncc(C(=O)Nc3c(C)cccc3Cl)s2)cc(N2CCN(CCO)CC2)n1 [Dasatinib] (partner 0.075 µM) in the same assay as above. Conditions: first compound 0.01 µM.
Summary of the method: as §1

Cell Line | relative viability
NCI-H2342 | 0.303
NCI-H1623 | 0.507
NCI-H838 | 0.273
NCI-H1650 | 0.301
NCI-H2347 | 0.27
PC-14 | 0.27
LCLC-103H | 0.314
NCI-H2126 | 0.528
NCI-H2085 | 0.219
HCC-366 | 0.421
NCI-H1666 | 0.854
NCI-H647 | 0.135
NCI-H2087 | 0.743
NCI-H1395 | 0.398
H3255 | 0.349
COR-L23 | 0.512
COR-L 105 | 0.351
LOU-NH91 | 0.49
ChaGo-K-1 | 0.554
NCI-H358 | 0.157
NCI-H3122 | 0.815
HOP-62 | 0.554
NCI-H522 | 0.614
SW 900 | 0.539
NCI-H727 | 0.402
NCI-H1563 | 0.473

From the supplement of paper PMC10307832
